Where two headings read alike, the source gives them in different places. Values belong to the compound of their own block, whether it stands above or below them.
Assays:
CYP2C9 and CYP2C19 = conditions: metabolized by CYP2C9 and CYP2C19; cited from earlier work
[1] = freeze–thaw stability (−80 °C, thawed at room temperature three times), High QC 1250
[2] = freeze–thaw stability (−80 °C, thawed at room temperature three times), Low QC 75
[3] = short-term stability T0 (room temperature, immediately after preparation), High QC 1250
[4] = short-term stability T0 (room temperature, immediately after preparation), Low QC 75
[5] = short-term stability T4 (freezer −80 °C, 4 h), High QC 1250
[6] = short-term stability T4 (freezer −80 °C, 4 h), Low QC 75
[7] = short-term stability T24 (freezer −80 °C, 24 h), High QC 1250
[8] = short-term stability T24 (freezer −80 °C, 24 h), Low QC 75

SMILES: Cc1cnc(C(=O)NCCc2ccc(S(=O)(=O)NC(=O)N[C@H]3CC[C@H](O)CC3)cc2)cn1 [4-trans-hydroxyglipizide]
Share of glipizide metabolized to the inactive metabolite (CYP2C9 and CYP2C19): 71%

SMILES: Cc1cnc(C(=O)NCCc2ccc(S(=O)(=O)NC(=O)N[C@H]3CCC[C@@H](O)C3)cc2)cn1 (relative stereo) [3-cis-hydroxyglipizide]
Share of glipizide metabolized to the inactive metabolite (CYP2C9 and CYP2C19): 15%

Accuracy (% Error) (autosampler 24 h, High QC 1250): −1.32%
Mean ± SD Measurable Conc. (autosampler 24 h, High QC 1250): 1233.47 ± 71.06 ng/mL
Accuracy (% Error) (autosampler 24 h, Low QC 75): 1.83%
Mean ± SD Measurable Conc. (autosampler 24 h, Low QC 75): 76.37 ± 2.27 ng/mL
Accuracy (% Error) [1]: −1.59%
Mean ± SD Measurable Conc. [1]: 1230.17 ± 112.55 ng/mL
Accuracy (% Error) [2]: 4.86%
Mean ± SD Measurable Conc. [2]: 78.65 ± 4.84 ng/mL
Accuracy (% Error) [3]: −0.82%
Mean ± SD Measurable Conc. [3]: 1239.79 ± 68.22 ng/mL
Accuracy (% Error) [4]: 8.13%
Mean ± SD Measurable Conc. [4]: 81.10 ± 2.06 ng/mL
Accuracy (% Error) [5]: 2.82%
Mean ± SD Measurable Conc. [5]: 1285.25 ± 10.84 ng/mL
Accuracy (% Error) [6]: −6.68%
Mean ± SD Measurable Conc. [6]: 69.99 ± 1.61 ng/mL
Accuracy (% Error) [7]: 4.93%
Mean ± SD Measurable Conc. [7]: 1311.63 ± 30.52 ng/mL
Accuracy (% Error) [8]: −6.27%
Mean ± SD Measurable Conc. [8]: 70.30 ± 2.90 ng/mL
SMILES: Cc1cnc(C(=O)NCCc2ccc(S(=O)(=O)NC(=O)NC3CCCCC3)cc2)cn1 [GLZ, glipizide]
